# Data reported in patent publication US6326395A, “Antifungal activity of dicationic molecules” (priority 1999, dated 2001).
# Where two headings read alike, the source gives them in different places.
# Legend:
# Cryptococcus neoformans = experiment: in vitro antifungal susceptibility testing (MIC, MFC; broth macrodilution), Tables 1-7; format: cell-based; details: for MIC: read-out: MIC80 (Minimum inhibitory concentration 80%); for MFC: read-out: MFC (Minimum fungicidal concentration)
# Excerpt: (§1) The fungi that were employed included two reference strains, C. neoformans var. neoformans H99 and C. albicans A39 and the following clinical isolates: (1) two strains of fluconazole-resistant C. neoformans var. neoformans (135.95 and 114.96); (2) two strains of C. neoformans var. gattii (119.95 and 114.95); (3) two strains of fluconazole-resistant C. albicans (102.96 and 103.96); and (4) one strain each of Torulopsis glabrata (142.91), Candida parapsilosis (111.96), Candida krusei (132.91), C. tropicalis (110.96), Candida lusitaniae (111.92), Fusarium solani (152.89), Aspergillus fumigatus (168.95), and Aspergillus flavus (112.96). Antifungal susceptibility testing was performed using an RPMI-1640 medium (Sigma Chemical Co., St. Louis, Mo.) with glutamine, without sodium bicarbonate, and buffered at pH 7.0 with 0.165 M morpholine-propanesulfonic acid (MOPS).
# (§2) In vitro susceptibility testing in the form of Minimum Inhibitory Concentration (MIC) experiments were performed using the broth macrodilution method according to the recommendations of the National Committee for Clinical Laboratory Standards (see 1995 manual). The only difference compared to the standardized procedure was the choice of drug dilutions ranging from 100 to 0.09 μg/ml. Briefly, this procedure specifies an inoculum grown at 35° C. and adjusted to a concentration of 0.5-2.5×10^3 CFU/ml with an incubation of the test performed at 35° C. and reading at 48 hours for all yeasts except for C. neoformans which is interpreted at 72 hr.
# (§3) Minimum Fungicidal Concentration (MFC) experiments were adapted from a method by McGinnis (McGinnis, M. R., (1980) "Susceptibility testing and bioassay procedure", p. 431, Academic Press, Inc., New York). Briefly, 10 μl aliquots from tubes with growth inhibition were plated onto Sabouraud agar plates.
# (§4) The fungi that were employed included two quality control reference strains, C. neoformans var. neoformansH99 and C. albicans A39 and the following clinical isolates: (1) four strains of C. neoformans var. neoformans (167.95; 135.95; 114.96; and 133.95) of which three were fluconazole-resistant>64 μg/ml (135.95; 114.96; and 133.95); (2) two strains of C. neoformans var. gattii (119.95 and 114.95); (3) two strains of fluconazole-resistant>64 μg/ml C. albicans (102.96 and 103.96); and (4) one strain each of C. glabrata (142.91), Candida parapsilosis (111.96), Candida krusei (132.91), C. tropicalis (110.96), Candida lusitaniae (111.92), Fusarium solani (152.89), Aspergillus fumigatus (168.95), Rhizopus arrhizus (117.89), Paecilomyces lilacinus (137.90), and Aspergillus flavus (112.96). Antifungal susceptibility testing was performed using an RPMI-1640 medium (Sigma Chemical Co., St. Louis, Mo.) with glutamine, without sodium bicarbonate, and buffered at pH 7.0 with 0.165 M morpholinepropanesulfonic acid (MOPS).
# as §3, with “p.431,” for “p. 431,”
# Candida albicans = experiment: as above; format: cell-based; details: for MIC: read-out: MIC80 (Minimum inhibitory concentration 80%); for MFC: three or fewer colonies, read-out: MFC (Minimum fungicidal concentration)
# Excerpt: as §1, §2, §3, §4
# as §3, with “p.431,” for “p. 431,”
# [1] = Tables 2-7, three or fewer colonies
# [2] = Table 1, three or fewer colonies
Structure (SMILES),"MIC (Cryptococcus neoformans; 35° C., 72 hr)","MIC (Candida albicans; 35° C., reading at 48 hours)",MFC (Candida albicans),MIC (Cryptococcus neoformans; 72 h),MIC (Candida albicans; 48 h),MFC (Cryptococcus neoformans; [1]),MFC (Cryptococcus neoformans; [2])
c1cc(-c2nc3ccc(C4=NCCN4)cc3[nH]2)ccc1C1=NCCN1 [Compound 62],50 µg/mL,50 µg/mL,> 100 µg/mL,–,–,–,–
N=C(N)c1ccc2nc(Cc3nc4ccc(C(=N)N)cc4[nH]3)[nH]c2c1 [Compound 28],–,–,–,> 100 µg/mL,> 100 µg/mL,–,–
CC(C)NC(=N)c1cccc(-c2ccc(-c3cccc(C(=N)NC(C)C)c3)o2)c1 [Compound 40],6.25 µg/mL,100 µg/mL,> 100 µg/mL,–,–,6.25 µg/mL,–
Cc1cc(-c2nc3ccc(C(=N)N)cc3[nH]2)c(C)cc1-c1nc2ccc(C(=N)N)cc2[nH]1 [Compound 50],25 µg/mL,25 µg/mL,100 µg/mL,–,–,25 µg/mL,–
CN(CCCNC(=O)c1ccc(-c2ccc(-c3ccc(C(=O)NCCCN(C)c4ccccc4)cc3)o2)cc1)c1ccccc1 [Compound 36],> 100 µg/mL,> 100 µg/mL,–,–,–,–,–
N=C(N)c1ccc2nc(-c3ccc(-c4nc5ccc(C(=N)N)cc5[nH]4)cc3)[nH]c2c1 [Compound 47],0.39 µg/mL,> 100 µg/mL,–,–,–,0.39 µg/mL,–
CCC(CC)NC(=N)c1ccc(-c2ccc(-c3ccc(C(=N)NC(CC)CC)cc3)o2)cc1 [Compound 26],12.5 µg/mL,100 µg/mL,100 µg/mL,–,–,12.5 µg/mL,–
CC(C)NC(=N)c1ccc(-c2ccc(-c3ccc(C(=N)NC(C)C)cc3)o2)cc1 [Compound 25],6.25 µg/mL,25 µg/mL,50 µg/mL,–,–,50 µg/mL,–
N=C(N)c1ccc(OCCCCOc2ccc(-c3nc4ccc(C(=N)N)cc4[nH]3)cc2)cc1 [Compound 65],≤ 0.09 µg/mL,0.39 µg/mL,3.12 µg/mL,–,–,1.56 µg/mL,–
CC(C)CNC(=N)c1ccc(-c2ccc(-c3ccc(C(=N)NCC(C)C)cc3)o2)cc1 [Compound 27],3.12 µg/mL,12.5 µg/mL,–,–,–,12.5 µg/mL,–
N=C(N)c1ccc(OCCCC(O)COc2ccc(C(=N)N)cc2)cc1 (stereo not shown) [Compound 21],6.25 µg/mL,6.25 µg/mL,12.5 µg/mL,–,–,12.5 µg/mL,–
NC(=NO)c1ccc(OCCCOc2ccc(C(N)=NO)cc2)cc1 [Compound 5],> 100 µg/mL,> 100 µg/mL,–,–,–,–,–
COc1cc(C(=N)N)ccc1OCCCCOc1ccc(C(=N)N)cc1OC [Compound 12],50 µg/mL,> 100 µg/mL,> 100 µg/mL,–,–,–,> 100 µg/mL
N=C(N)c1cccc(OCCCCOc2cccc(C(=N)N)c2)c1 [Compound 16],25 µg/mL,12.5 µg/mL,25 µg/mL,–,–,–,25 µg/mL
N=C(N)c1cccc(-c2ccc(-c3cccc(C(=N)N)c3)o2)c1 [Compound 38],3.12 µg/mL,50 µg/mL,100 µg/mL,–,–,25 µg/mL,–
N=C(N)c1ccc(OCCC(O)CCOc2ccc(C(=N)N)cc2)cc1 (stereo not shown) [Compound 22],12.5 µg/mL,12.5 µg/mL,12.5 µg/mL,–,–,12.5 µg/mL,–
CCCNC(=N)c1ccc(-c2ccc(-c3ccc(C(=N)NCCC)cc3)o2)cc1 [Compound 24],1.56 µg/mL,12.5 µg/mL,12.5 µg/mL,–,–,6.25 µg/mL,–
N=C(N)c1ccc2nc(-c3ccc(O)cc3)[nH]c2c1 [Compound 61],> 100 µg/mL,> 100 µg/mL,–,–,–,> 100 µg/mL,–
COc1ccc(-c2nc3ccc(C4=NCCN4)cc3[nH]2)cc1 [Compound 59],50 µg/mL,25 µg/mL,–,–,–,100 µg/mL,–
N=C(N)c1cccc(OCCCOc2cccc(C(=N)N)c2)c1 [Compound 7],–,> 100 µg/mL,> 100 µg/mL,–,–,–,–
